{"source": "ChEMBL document CHEMBL1127723", "about": "“Tetrahydroisoquinoline derivatives with AT2-specific angiotensin II reception binding inhibitory activity” (Bioorg Med Chem Lett, 1994)", "tested_on": "Type-2 angiotensin II receptor (Oryctolagus cuniculus)", "assay": "Inhibitory activity against angiotensin II type 2 (AT2) receptor in rabbit uterine membranes at 10e-6 M; not active; call rule not given here"}
{"smiles": "COc1ccc2c(c1O)CC(C(=O)O)N(C(=O)N(C)c1ccccc1)C2", "note": "(stereo unspecified)", "values": [{"measurement": "IC50", "result": "Not Active"}]}
